From patent US8569242B2, “Method of treating degenerative disorders of the nervous system” (The Regents of the University of California, priority 2005, dated 2013)
“Also recorded” adds a separate entry of the source.

Legend:
[1] = system: Akt; test: Akt phosphorylation immunoblot in microglia; assay type: cell-based, mouse; conditions: for effect on fibrin-mediated phosphorylation of Akt: microglia on fibrinogen plus peptide; for effect on LPS-mediated phosphorylation of Akt: microglia with LPS plus peptide
Experimental: Immunoblots. Western blots were performed using standard protocols (55). Microglia were serum-starved overnight and plated on fibrinogen or with LPS for 6 hours. Lysates were electrophoresed on 4-12% gradient SDS-PAGE gels and probed with phospho and total Akt antibodies (1:1000, Cell Signaling, Beverly, Mass.). RhoA activation was performed as described (60). Briefly, 2×107 microglia were plated on fibrinogen for 6 hours or with LPS for 10 minutes. Cell lysates were incubated with GST-Rhotekin agarose beads (kindly provided by Dr. Joan Heller Brown, UCSD) for 45 minutes at 4° C. The beads were washed, resuspended in Laemmli sample buffer, and electophoresed on a 15% SDS-PAGE gel. Activated and total Rho were detected with mouse anti-RhoA (1:500, Santa Cruz Biotechnology, Santa Cruz, Calif.). Densitometry was performed using the NIH Scion Image software using three blots from three separate experiments.

[2] = system: blood coagulation; test: Hematological analyses: plasma clotting time and prothrombin time after intranasal peptide; assay type: in vivo, mouse; conditions: 30 μg and 90 μg intranasally daily for seven days
Experimental: (§1) Hematological Analyses. Citrated plasma was prepared from mice administered intranasally 30 μg or 90 μg of γ^377-395 peptide or saline control daily for seven days. Plasma clotting times were measured by combining 10 μl of citrated plasma with 10 μl of 2 U/ml bovine thrombin (Enzyme Research Laboratories, South Bend, Ind., USA) and 40 mM. CaCl2 in a weigh boatfloating in a 37° C. water bath. Time to clot was determined by mixing with a toothpick. Plasma thrombin times were established as described previously (15). Fibrin polymerization was evaluated by standard turbidity assays using plasma. Briefly, citrate plasma (diluted tenfold in 20 mM HEPES, pH 7.4, containing 0.15 M NaCl and 5 mM-amino caproic acid) was combined with bovine thrombin (final concentration 0.2 U/ml; Enzyme Research Laboratories, South Bend, Ind., USA), and Ca^2+ (10 mM), and OD350 measurements were taken every 30 seconds.

[3] = target: T1, fibrin (Mus musculus, UniProt E9PV24+Q8K0E8+Q8VCM7); test: In vitro fibrin polymerization turbidity assay in plasma; assay type: biochemical; conditions: citrate plasma, bovine thrombin 0.2 U/ml, OD350
T1 construct: from tissue; host or cells: citrated mouse plasma, diluted tenfold
T1 sequence (Q8VCM7 26-436): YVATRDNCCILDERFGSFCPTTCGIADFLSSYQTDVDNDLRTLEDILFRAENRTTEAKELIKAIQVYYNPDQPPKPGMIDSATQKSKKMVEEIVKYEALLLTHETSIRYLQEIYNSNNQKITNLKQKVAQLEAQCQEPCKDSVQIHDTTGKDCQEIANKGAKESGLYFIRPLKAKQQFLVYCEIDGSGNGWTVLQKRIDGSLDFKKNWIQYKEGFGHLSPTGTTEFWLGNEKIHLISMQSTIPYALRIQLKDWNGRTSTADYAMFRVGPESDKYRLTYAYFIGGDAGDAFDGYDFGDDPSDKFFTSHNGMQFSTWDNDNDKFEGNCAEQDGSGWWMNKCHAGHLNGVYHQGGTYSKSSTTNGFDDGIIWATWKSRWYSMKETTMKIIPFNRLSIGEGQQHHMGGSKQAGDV
T1 sequence (E9PV24 37-789 limits assumed): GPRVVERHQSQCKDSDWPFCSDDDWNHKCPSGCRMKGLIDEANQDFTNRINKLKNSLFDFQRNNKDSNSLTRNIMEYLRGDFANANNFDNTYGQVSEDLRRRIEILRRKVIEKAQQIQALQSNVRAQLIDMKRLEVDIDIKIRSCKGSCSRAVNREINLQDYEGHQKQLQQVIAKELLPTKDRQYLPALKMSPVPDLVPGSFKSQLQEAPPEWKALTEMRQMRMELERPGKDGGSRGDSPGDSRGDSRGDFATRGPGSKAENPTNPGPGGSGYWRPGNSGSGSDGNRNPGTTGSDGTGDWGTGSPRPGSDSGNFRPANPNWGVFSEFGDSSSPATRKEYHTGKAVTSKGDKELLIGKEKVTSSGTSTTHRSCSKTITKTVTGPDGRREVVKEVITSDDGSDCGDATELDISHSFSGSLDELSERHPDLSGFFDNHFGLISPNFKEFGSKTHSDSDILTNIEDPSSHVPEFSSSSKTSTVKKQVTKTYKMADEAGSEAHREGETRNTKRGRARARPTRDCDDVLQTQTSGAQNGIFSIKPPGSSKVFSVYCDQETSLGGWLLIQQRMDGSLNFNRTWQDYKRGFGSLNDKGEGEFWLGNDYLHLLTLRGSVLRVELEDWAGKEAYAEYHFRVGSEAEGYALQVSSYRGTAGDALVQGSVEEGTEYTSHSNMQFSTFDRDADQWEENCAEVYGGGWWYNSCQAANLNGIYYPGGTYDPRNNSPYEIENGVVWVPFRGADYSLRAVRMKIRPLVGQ
T1 sequence (Q8K0E8 35-481 limits assumed): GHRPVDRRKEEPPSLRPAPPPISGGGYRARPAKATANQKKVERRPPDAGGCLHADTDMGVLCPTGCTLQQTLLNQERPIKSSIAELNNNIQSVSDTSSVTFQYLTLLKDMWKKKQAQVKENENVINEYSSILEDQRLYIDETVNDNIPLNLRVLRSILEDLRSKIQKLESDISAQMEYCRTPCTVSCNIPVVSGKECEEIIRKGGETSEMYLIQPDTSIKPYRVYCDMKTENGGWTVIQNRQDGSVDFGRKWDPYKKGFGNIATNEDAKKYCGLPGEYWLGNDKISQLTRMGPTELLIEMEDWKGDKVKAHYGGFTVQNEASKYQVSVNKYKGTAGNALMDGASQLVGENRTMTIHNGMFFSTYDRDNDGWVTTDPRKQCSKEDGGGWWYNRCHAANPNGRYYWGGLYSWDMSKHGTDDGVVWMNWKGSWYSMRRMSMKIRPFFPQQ
Experimental: as §1

## tyr-ser-met-lys-lys-thr-thr-met-lys-ile-ile-pro-phe-asn-arg-leu-thr-ile-gly (YSMKKTTMKIIPFNRLTIG) (listed as Homo sapiens) [γ^377-395 peptide]
[1]
  effect on fibrin-mediated phosphorylation of Akt: specifically inhibit
  effect on LPS-mediated phosphorylation of Akt: not LPS-mediated
[1]; listed as γ^377-395
  effect on fibrin-mediated phosphorylation of Akt: blocks
  effect on LPS-mediated phosphorylation of Akt: unaffected
[2]
  in vivo blood clotting time: does not affect; also recorded: Neither dose affected
  prothrombin time: does not affect; also recorded: Neither dose affected
[3]
  effect on fibrin polymerization: did not alter; also recorded: had no effect
